# Data taken from ChEMBL document CHEMBL1201862, “PubChem BioAssay data set” (2004).
# Structures can show the parent of a compound that is named as a salt. Calls of active or inactive are those of the source.
# Columns and labels:
# [1] = Luminescence Cell-Based Dose Response HTS to Identify Inhibitors of 5'UTR Stem-Loop Driven Prion Protein mRNA Translation in H4 Neuroglioblastoma Cells. [Related pubchem assays: 1827 (Project Summary), 1813 (Primary HTS)]; assay type: functional
# [2] = alpha-synuclein stem-loop luciferase translation blockers – H4 neuroglioma cells, luminescence, confirmation (AID 1988); assay type: functional, cell-based
# cells = assay type: functional, cell-based
# [3] = molecular target: T1, Nuclear receptor subfamily 0 group B member 1 (Homo sapiens, UniProt P51843); assay type: functional, cell-based;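 further: HEK293T cells transfected with SF-1 and DAX-1 plus StAR promoter luciferase reporter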
# T1 sequence (P51843 whole entry): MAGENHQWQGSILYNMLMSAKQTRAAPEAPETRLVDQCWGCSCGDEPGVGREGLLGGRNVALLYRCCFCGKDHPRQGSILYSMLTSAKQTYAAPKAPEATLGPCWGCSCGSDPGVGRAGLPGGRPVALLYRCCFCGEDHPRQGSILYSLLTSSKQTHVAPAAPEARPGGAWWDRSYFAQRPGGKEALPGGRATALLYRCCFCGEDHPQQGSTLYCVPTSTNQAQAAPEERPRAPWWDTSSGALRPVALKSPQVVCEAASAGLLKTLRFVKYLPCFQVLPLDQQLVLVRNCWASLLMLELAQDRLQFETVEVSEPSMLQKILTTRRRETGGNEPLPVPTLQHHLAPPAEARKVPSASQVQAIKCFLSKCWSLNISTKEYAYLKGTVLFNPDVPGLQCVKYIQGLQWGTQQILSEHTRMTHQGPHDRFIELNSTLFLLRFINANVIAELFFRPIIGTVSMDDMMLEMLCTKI
# [4] = molecular target: T2, Mannose-6-phosphate isomerase (Homo sapiens, UniProt P34949); test: MPI inhibition at elevated mannose 6-phosphate – biochemical, fluorescence intensity, high mannose 6-phosphate, primary screen (AID 1220)
# T2 sequence (P34949 whole entry): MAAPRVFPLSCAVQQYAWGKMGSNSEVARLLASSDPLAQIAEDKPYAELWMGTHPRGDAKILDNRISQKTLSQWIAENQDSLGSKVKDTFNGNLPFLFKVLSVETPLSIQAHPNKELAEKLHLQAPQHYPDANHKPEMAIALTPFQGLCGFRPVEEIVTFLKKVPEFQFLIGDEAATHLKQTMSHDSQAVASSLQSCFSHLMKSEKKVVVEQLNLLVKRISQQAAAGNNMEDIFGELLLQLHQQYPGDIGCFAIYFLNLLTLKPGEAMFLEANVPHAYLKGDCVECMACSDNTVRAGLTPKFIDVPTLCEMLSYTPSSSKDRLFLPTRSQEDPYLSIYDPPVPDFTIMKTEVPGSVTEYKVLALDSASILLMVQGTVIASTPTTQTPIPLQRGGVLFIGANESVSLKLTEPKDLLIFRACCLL
# [5] = molecular target: T3, Sentrin-specific protease 8 (Homo sapiens, UniProt Q96LD8); assay type: functional
# T3 sequence (Q96LD8 whole entry): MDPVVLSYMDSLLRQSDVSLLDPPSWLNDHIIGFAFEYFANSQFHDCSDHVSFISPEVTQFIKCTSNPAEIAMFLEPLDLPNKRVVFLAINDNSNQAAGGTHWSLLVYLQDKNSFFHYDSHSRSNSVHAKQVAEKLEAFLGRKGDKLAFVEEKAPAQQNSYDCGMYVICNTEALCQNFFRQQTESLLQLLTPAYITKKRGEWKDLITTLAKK
# [6] = molecular target: T3, Sentrin-specific protease 8; assay type: functional; remark: listed apart in the source
# [7] = viability of PTEN-deleted HCT116 cells – cell-based, HCT116 PTEN knockout, dose response (AID 1047); assay type: functional;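 further: HCT116 colon tumor cells with PTEN knocked out; cells exposed to compound for 60 hours before readout; potency for loss of cell viability measured by luminescence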
# [8] = viability of HCT116 lacking mutant beta-catenin – cell-based, human colon tumor, dose response (AID 1045); assay type: functional;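 further: HCT116 colon tumor cells with beta catenin knocked out; cells exposed to compound for 60 hours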
# [9] = molecular target: ADP-ribosylation factor GTPase-activating protein 1 (Rattus norvegicus, UniProt Q62848); test: Fluorescence polarization-based biochemical high throughput dose response screening assay to identify inhibitors of ADP-ribosylation factor GTPase activating protein 1 (ARFGAP1).; assay type: functional
# Chain of ADP-ribosylation factor GTPase-activating protein 1 (Q62848 whole entry, the tested form may be a part): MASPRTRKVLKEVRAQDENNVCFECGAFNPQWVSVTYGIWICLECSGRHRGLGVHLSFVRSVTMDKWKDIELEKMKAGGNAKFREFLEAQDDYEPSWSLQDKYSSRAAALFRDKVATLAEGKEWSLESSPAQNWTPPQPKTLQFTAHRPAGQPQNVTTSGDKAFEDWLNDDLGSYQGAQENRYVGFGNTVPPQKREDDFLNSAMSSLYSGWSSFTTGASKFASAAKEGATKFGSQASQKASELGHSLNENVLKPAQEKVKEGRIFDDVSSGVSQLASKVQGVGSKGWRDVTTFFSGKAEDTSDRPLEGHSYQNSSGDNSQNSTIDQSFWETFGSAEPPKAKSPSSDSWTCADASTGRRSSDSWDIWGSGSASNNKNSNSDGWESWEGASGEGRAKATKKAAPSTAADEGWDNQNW
# [10] = molecular target: Arf-GAP with SH3 domain, ANK repeat and PH domain-containing protein 1 (Homo sapiens, UniProt Q9ULH1); assay type: functional;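 further: biochemical fluorescence polarization dose–response screen measuring inhibition of ASAP1; ASAP1 GAP domain stimulating GTP hydrolysis by truncated human ARF1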
# Chain of Arf-GAP with SH3 domain, ANK repeat and PH domain-containing protein 1 (Q9ULH1 whole entry, the tested form may be a part): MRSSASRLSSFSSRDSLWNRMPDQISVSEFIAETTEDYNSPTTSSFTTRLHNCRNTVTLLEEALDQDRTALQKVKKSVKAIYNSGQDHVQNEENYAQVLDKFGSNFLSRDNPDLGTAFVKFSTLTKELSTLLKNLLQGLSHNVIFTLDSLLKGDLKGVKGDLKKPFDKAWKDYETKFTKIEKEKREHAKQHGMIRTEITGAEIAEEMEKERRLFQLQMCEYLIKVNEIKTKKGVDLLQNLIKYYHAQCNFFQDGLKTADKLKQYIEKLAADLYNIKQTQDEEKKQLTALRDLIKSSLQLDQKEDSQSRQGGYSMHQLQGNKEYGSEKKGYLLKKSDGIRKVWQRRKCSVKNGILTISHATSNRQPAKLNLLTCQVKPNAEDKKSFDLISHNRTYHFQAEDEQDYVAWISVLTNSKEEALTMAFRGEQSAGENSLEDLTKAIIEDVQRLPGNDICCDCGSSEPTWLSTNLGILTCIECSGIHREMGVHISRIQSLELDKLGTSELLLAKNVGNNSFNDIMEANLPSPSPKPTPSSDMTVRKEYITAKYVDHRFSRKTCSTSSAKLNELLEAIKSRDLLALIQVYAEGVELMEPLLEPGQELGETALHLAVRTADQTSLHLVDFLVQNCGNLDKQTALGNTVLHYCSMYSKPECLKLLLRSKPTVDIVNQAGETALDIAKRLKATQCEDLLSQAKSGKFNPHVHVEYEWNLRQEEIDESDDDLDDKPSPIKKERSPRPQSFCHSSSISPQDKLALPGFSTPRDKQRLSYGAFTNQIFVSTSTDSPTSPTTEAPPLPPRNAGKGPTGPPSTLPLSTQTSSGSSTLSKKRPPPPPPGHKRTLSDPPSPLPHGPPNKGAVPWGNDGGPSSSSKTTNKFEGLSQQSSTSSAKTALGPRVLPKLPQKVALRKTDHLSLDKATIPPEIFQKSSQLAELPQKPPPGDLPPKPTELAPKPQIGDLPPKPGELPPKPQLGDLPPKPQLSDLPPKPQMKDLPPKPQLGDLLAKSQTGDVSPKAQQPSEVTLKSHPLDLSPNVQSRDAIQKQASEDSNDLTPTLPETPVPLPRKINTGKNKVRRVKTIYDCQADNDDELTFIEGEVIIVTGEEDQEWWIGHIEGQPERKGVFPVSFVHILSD
# [11] = system: Streptococcus sp. 'group A'; test: Streptococcus pyogenes SK(-)GAS viability under kanamycin – luminescence, BacTiterGlo, confirmation, counter-screen for streptokinase expression inhibitor project, dose response (AID 1900); assay type: functional, organism-based
# Streptokinase A = molecular target: T4, Streptokinase A (Streptococcus pyogenes serotype M1, UniProt P10520); test: viability-normalized secreted streptokinase activity reduction – plasminogen activation absorbance, OD405, dose response (AID 1914); assay type: functional, Streptococcus pyogenes M1 GAS;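 further: secreted streptokinase activity via plasminogen activation per viability signal from cell pellet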
# T4 sequence (P10520 whole entry): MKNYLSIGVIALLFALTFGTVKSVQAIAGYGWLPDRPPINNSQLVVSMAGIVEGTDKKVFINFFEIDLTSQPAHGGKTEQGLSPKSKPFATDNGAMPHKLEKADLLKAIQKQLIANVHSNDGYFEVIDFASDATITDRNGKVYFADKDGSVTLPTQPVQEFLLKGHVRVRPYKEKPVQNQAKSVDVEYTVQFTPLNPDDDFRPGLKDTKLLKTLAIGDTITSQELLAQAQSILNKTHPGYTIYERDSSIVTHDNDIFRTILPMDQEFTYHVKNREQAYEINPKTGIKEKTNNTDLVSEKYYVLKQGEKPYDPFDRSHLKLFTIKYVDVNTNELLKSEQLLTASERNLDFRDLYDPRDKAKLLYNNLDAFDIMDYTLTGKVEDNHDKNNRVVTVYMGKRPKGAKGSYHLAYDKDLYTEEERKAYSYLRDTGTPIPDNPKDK
# [12] = Trypanosoma cruzi growth suppression in host cells – NIH3T3 host cells, beta-gal luminescence, confirmation (AID 2044); assay type: functional, cell-based;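 further: intracellular parasites grown in NIH/3T3 mouse fibroblasts as host cells; luminescent beta-galactosidase reporter signal from transgenic T. cruzi replicating inside host cells; inhibitors lower the luminescence signal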
# [13] = NIH3T3 cell viability loss – ATP luminescence, mouse fibroblasts, counter-screen, dose response (AID 2010); assay type: functional, cell-based;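 further: cells exposed to compound for about 90 hours before reading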
# Streptococcus = test: GAS UMAA2166 growth inhibition – luminescence, BacTiterGlo, counter-screen for streptokinase expression inhibitor project, dose response (AID 1915); assay type: functional, organism-based;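 further: potency for reduction of bacterial viability or growth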
# [14] = Luminescence Cell-Based Dose Retest to Confirm Inhibitors of Cancer Stem Cells. [Related pubchem assays (depositor defined):AID2717, AID2721]; assay type: functional; settings: Homo sapiens
# [15] = general mammalian cell viability loss – inhibitor set, cherry-pick, set 2, cytotoxicity control for miR-122 modulator project, dose response (AID 720697); assay type: functional, cell-based
# [16] = molecular target: T5, RNA-binding protein pos-1 (Caenorhabditis elegans, UniProt G5EF15); test: disruptors of C. elegans POS-1 RNA interaction – biochemical, fluorescence polarization, dose response (AID 1964);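 further: purified POS-1 fused to maltose binding protein made in E. coli; potency of compounds blocking POS-1 binding to fluorescent RNA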
# T5 sequence (G5EF15 whole entry): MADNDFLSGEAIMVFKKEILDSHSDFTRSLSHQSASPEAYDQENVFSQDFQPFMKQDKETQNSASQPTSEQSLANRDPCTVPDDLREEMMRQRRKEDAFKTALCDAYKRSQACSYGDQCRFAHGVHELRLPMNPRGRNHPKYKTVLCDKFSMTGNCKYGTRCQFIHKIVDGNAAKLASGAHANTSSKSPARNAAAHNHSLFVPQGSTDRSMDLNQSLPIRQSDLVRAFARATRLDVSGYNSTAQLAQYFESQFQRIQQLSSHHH
# [17] = molecular target: T6, Zinc finger protein mex-5 (Caenorhabditis elegans, UniProt Q9XUB2); test: potency of MEX-5 RNA-binding blockers – biochemical, C. elegans, fluorescence polarization, dose response (AID 1960)
# T6 sequence (Q9XUB2 whole entry): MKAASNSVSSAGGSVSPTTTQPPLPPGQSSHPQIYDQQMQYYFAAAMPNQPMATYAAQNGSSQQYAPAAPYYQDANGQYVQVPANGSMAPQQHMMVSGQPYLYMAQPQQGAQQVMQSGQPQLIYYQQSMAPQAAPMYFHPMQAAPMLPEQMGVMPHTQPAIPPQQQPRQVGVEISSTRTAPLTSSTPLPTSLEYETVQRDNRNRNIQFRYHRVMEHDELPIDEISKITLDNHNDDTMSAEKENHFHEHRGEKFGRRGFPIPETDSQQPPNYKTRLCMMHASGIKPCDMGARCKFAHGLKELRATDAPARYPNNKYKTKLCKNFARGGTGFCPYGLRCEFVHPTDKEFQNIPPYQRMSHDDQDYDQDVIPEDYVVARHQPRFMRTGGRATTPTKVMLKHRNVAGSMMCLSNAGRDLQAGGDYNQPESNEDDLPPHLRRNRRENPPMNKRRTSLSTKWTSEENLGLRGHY
# [18] = inhibition of ARNT PAS-B/TACC3 complex formation – biochemical, AlphaScreen, cherry-picked samples, confirmation (AID 651703); assay type: functional, Homo sapiens;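 further: His-tagged ARNT PAS-B domain paired with GST-TACC3 E629A dimer coactivator fragment; potency of inhibitors that break up the complex and lower AlphaScreen signal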
# Escherichia coli [19] = test: microbe, parasite or virus in culture
# Escherichia coli [20] = test: microbe, parasite or virus in culture; remark: listed apart in the source
# [21] = molecular target: T7, Corticotropin-releasing factor receptor 2/Corticotropin-releasing factor-binding protein (Homo sapiens, UniProt P24387+Q13324); test: Dose Response confirmation of uHTS hits for small molecule antagonists of the CRF-binding protein and CRF-R2 receptor complex.; assay type: functional; settings: read-out: IC50_Mean
# T7 sequence (Q13324 whole entry): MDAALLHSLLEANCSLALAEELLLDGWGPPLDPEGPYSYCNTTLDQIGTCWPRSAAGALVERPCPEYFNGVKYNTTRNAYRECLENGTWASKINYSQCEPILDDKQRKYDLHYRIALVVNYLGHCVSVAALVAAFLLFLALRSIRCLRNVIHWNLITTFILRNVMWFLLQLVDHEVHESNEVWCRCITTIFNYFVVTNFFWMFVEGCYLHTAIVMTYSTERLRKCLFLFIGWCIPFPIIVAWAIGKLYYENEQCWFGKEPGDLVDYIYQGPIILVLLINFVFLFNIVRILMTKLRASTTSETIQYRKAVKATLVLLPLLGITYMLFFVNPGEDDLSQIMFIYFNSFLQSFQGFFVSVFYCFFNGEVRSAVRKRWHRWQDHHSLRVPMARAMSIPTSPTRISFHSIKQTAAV
# T7 sequence (P24387 whole entry): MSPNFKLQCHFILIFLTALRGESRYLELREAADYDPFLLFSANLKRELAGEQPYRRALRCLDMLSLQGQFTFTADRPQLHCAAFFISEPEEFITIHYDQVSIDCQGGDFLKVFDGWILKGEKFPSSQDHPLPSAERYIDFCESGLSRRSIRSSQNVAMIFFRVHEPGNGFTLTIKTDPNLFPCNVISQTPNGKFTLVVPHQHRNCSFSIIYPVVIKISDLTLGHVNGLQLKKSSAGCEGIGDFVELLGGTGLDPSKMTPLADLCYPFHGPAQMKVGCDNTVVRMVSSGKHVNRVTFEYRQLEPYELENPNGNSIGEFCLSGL
# [22] = molecular target: T7, Corticotropin-releasing factor receptor 2/Corticotropin-releasing factor-binding protein; test: activators of CRF receptor 2 with binding protein – uHTS hits, confirmation (AID 602473); assay type: functional; settings: read-out: EC50_Mean
# [23] = blockers of CRF-binding protein–CRF-R2 complex – cell-based, uHTS hits, 384-well, dose response (AID 651639); assay type: functional, Homo sapiens; settings: read-out: IC50_Mean
# [24] = molecular target: SWI/SNF-related matrix-associated actin-dependent regulator of chromatin subfamily A member 2 (Homo sapiens, UniProt P51531); test: Luminescence-based cell-based high throughput dose response assay to identify activators of the function of SWI/SNF related, matrix associated, actin dependent regulator of chromatin, subfamily a, member 2 (SMARCA2, BRM).; assay type: functional
# Chain of SWI/SNF-related matrix-associated actin-dependent regulator of chromatin subfamily A member 2 (P51531 whole entry): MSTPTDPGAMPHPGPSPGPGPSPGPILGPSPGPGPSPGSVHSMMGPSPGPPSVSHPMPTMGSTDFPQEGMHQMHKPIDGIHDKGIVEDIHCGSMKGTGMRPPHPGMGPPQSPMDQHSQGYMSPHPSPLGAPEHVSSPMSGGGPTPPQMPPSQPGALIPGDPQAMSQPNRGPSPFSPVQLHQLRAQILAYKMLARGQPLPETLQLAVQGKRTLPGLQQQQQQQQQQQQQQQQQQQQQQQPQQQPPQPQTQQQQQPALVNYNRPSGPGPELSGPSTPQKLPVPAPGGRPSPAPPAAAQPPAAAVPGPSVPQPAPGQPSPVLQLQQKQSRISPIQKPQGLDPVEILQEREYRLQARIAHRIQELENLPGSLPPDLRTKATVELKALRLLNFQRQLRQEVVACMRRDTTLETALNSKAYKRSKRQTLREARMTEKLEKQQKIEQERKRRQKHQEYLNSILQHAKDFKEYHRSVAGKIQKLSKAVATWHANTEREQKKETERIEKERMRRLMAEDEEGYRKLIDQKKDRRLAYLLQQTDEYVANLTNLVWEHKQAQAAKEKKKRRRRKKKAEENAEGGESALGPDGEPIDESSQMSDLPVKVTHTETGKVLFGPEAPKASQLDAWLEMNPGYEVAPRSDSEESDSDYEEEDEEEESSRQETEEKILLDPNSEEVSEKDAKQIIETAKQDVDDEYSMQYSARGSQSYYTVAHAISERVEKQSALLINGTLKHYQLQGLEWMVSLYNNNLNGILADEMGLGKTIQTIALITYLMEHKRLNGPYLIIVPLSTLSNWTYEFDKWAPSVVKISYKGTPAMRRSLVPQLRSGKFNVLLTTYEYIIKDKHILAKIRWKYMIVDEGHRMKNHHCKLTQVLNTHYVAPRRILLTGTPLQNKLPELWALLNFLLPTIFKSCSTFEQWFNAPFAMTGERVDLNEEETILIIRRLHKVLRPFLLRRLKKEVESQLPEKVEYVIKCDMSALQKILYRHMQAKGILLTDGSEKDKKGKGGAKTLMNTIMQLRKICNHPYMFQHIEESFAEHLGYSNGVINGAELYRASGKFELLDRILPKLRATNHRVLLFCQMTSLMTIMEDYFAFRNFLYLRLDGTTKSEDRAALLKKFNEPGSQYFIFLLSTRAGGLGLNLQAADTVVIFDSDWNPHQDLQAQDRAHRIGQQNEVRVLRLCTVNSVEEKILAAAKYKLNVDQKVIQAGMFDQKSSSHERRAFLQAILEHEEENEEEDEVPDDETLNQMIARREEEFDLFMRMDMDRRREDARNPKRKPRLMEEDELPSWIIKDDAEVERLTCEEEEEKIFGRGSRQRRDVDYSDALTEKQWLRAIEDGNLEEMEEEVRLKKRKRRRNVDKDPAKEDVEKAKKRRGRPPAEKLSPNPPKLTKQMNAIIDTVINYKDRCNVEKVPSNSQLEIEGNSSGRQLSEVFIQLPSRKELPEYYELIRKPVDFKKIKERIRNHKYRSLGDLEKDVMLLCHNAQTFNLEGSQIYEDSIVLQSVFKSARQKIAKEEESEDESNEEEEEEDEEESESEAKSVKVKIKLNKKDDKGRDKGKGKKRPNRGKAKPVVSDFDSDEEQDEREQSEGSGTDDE
# [25] = Counterscreen for activators of the function of SWI/SNF related, matrix associated, actin dependent regulator of chromatin, subfamily a, member 2 (SMARCA2, BRM): Luminescence-based cell-based high throughput dose response assay to identify non-selective compounds using the VP16 reporter assay.; assay type: functional
# Large T antigen = Large T antigen (Simian virus 40, UniProt P03070); assay type: functional, Betapolyomavirus macacae;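 further: Confirmatory-stage PubChem screen for compounds that inhibit SV40 T antigen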
# Chain of Large T antigen (P03070 whole entry): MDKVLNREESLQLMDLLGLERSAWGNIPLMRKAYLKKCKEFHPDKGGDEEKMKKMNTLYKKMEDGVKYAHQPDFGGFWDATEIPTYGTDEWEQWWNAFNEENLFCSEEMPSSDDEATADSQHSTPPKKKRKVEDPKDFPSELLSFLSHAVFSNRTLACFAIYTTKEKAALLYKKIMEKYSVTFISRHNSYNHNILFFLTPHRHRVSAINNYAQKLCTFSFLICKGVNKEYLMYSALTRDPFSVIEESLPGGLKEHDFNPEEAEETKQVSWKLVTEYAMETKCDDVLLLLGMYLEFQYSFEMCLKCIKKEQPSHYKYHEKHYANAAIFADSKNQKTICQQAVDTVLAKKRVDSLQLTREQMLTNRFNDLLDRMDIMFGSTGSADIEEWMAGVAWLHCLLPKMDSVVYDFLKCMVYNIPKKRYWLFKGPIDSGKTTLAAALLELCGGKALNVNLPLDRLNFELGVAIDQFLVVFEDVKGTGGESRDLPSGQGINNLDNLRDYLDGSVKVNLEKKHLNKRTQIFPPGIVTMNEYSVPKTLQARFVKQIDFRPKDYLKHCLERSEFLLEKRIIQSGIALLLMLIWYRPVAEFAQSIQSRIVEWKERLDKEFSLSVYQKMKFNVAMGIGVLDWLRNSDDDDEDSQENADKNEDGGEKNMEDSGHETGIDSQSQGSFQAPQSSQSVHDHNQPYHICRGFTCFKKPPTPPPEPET
# Mu-type opioid receptor = Mu-type opioid receptor (Homo sapiens, UniProt P35372); assay type: functional, cell-based;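 further: U2OS cells with beta-arrestin recruitment to OPRM1 by beta-gal complementation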
# Chain of Mu-type opioid receptor (P35372 whole entry): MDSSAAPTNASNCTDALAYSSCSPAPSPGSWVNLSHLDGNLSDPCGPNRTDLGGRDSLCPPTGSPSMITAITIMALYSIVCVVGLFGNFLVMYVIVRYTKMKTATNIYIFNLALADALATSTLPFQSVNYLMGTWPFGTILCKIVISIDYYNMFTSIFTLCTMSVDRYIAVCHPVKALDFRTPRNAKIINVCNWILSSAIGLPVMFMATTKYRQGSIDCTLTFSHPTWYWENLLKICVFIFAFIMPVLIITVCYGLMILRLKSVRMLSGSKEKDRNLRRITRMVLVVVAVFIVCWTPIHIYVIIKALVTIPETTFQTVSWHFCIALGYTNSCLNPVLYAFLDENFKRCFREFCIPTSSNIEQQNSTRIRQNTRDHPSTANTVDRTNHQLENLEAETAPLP
structure (smiles),measurement,setting,value
COc1ccc(C(=O)NCCC2=CCCCC2)cc1,EC50,[1],8.58 µM (active)
same,EC50,[2],8.69 µM (inconclusive)
same,IC50,cells,> 67.5 µM (inactive)
same,IC50,[3],> 0.278 µM (active)
NC(=O)c1ccc(/N=C2\C(=O)Nc3ccc([N+](=O)[O-])cc32)cc1,IC50,[4],27.5 µM (active)
same,IC50,[5],4.25 µM (active)
same,IC50,[6],3.98 µM (active)
O=C(/C=C\c1cn(-c2ccccc2)nc1-c1ccccc1)Nc1nccs1,EC50,[7],7.09 µM (active)
same,EC50,[8],7.96 µM (active)
same,IC50,[9],32.1 µM (inactive)
same,IC50,[10],26.2 µM (inactive)
C/C(=N\Nc1cc(N2CCCCC2)nc(C)n1)c1ccc(Br)cc1,EC50,[11],6.7 µM (active)
same,EC50,Streptokinase A,46.7 µM (inconclusive)
same,EC50,[12],0.7 µM (active)
same,EC50,[13],> 60 µM (not active)
same,EC50,Streptococcus,> 50 µM (not active)
same,AC50,[14],5.52 µM (active)
same,AC50,[15],5.41 µM (active)
O=C(N/N=C/c1ccc2c(c1)OCO2)c1ccccn1,IC50,cells,> 67.5 µM (inactive)
same,IC50,[3],> 67.5 µM (inactive)
CN(C)[C@@H]1C(=O)C(C(N)=O)=C(O)[C@@]2(O)C(O)=C3C(=O)c4c(O)cccc4[C@@](C)(O)C3[C@H](O)C12 (some centres not stated),EC50,[16],54.1 µM (active)
same,EC50,[11],0.088 µM (active)
same,EC50,[17],20.5 µM (active)
same,EC50,Streptococcus,0.277 µM (active)
same,AC50,[18],75.2 µM (active)
same,AC50,Escherichia coli [19],9.92 µM (active)
same,AC50,Escherichia coli [20],< 0.3 µM (active)
COc1ccc(/C=C2\CCC/C(=C\c3ccc(OC)c(OC)c3OC)C2=O)c(OC)c1OC,IC50,[21],4.04 µM (active)
same,EC50,[22],> 53 µM (inactive)
same,IC50,[23],7.33 µM (active)
O=C1C(Sc2ccccc2)=C[C@@]2(O)CC[C@@H](O)[C@]1(Sc1ccccc1)[C@H]2O,EC50,[24],> 91.3 µM (inactive)
same,EC50,[25],> 91.3 µM (inactive)
NCCc1c[nH]c2ccc(O)cc12 [SEROTONIN HYDROCHLORIDE],IC50,Large T antigen,41.3 µM (active)
same,EC50,Mu-type opioid receptor,92.4 µM (inactive)
CCc1noc(C)c1C(=O)N1CCS/C1=N\c1cccc(Cl)c1C,IC50,[21],< 0.368 µM (active)
same,EC50,[22],> 53 µM (inactive)
same,IC50,[23],> 20 µM (inactive)
